This data set is described as follows: Critical water activity of solid forms, samples tested by powder X-ray diffraction. Type of data set: physicochemical. From the text: Critical water activity is a phase boundary above which a hydrate is a stable form. […] Values of aw. correspond to percent humidity, where the percent humidity is described as 100 x aw. Thus 0.1 aw corresponds to 10% humidity, 0.2 aw corresponds to 20% humidity, and so on. The claimed polymorphic forms of Compound 1 mono-hydrochloride interconvert between Form 1 and Form 2 at a critical water activity of between 0.60 and 0.65 (corresponding to a relative humidity of between 60% and 65%). The critical water activity of the free base form of Compound 1 is between 0.2 and 0.3 (corresponding to a relative humidity between 20% and 30%). It is noted that manufacturing processes are routinely run at relative humidities that exceed 30% relative humidity, but manufacturing processes run at relative humidities of >60% are unusual. Samples were tested using powder X-ray diffraction. Analysis was conducted using a Bruker AXS D8 Endeavor diffractometer equipped with a Cu radiation source. The divergence slit was set at 6 mm continuous illumination. Diffracted radiation was detected by a PSD-Lynx Eye detector, with the detector PSD opening set at 4.104 degrees. The X-ray tube voltage and amperage were set to 40 kV and 40 mA respectively. Data was collected in the Theta-Theta goniometer at the Cu wavelength from 3.0 to 40.0 degrees 2-Theta using a step size of 0.020 degrees and a step time of 0.3 second. Samples were prepared by placing them in a silicon low background sample holder and rotated during collection. Data were collected using Bruker DIFFRAC Plus software and analysis was performed by EVA diffract plus software.

Structures are written as SMILES.

This note sets out measurements from patent US20200199104A1, “Novel Polymorphic Forms of a TGFBeta Inhibitor” (PFIZER INC., priority 2018, published 2020).

As to `CC(C)c1cnc(-c2cc(Cl)ccc2F)cc1Nc1ccncc1C(=O)NC(CO)CO.Cl` [Compound 1, mono-HCl salt, 4-(2-(5-chloro-2-fluorophenyl)-5-isopropylpyridin-4-ylamino)-N-(1,3-dihydroxypropan-2-yl)nicotinamide mono hydrochloride], the “PXRD Result (solid form)” value is given as “Form 1” (Water Activity at Room Temperature 0.60 aw); “Form 2” (Water Activity at Room Temperature 0.65 aw); “Form 2” (Water Activity at Room Temperature 0.70 aw); “Form 2” (Water Activity at Room Temperature 0.75 aw); “Form 2” (Water Activity at Room Temperature 0.80 aw).
`CC(C)c1cnc(-c2cc(Cl)ccc2F)cc1Nc1ccncc1C(=O)NC(CO)CO` [Compound 1, Free Base, 4-(2-(5-chloro-2-fluorophenyl)-5-isopropylpyridin-4-ylamino)-N-(1,3-dihydroxypropan-2-yl)nicotinamide]: the “PXRD Result (solid form)” value is “free base anhydrous” (Water Activity at Room Temperature 0.1 aw); “free base anhydrous” (Water Activity at Room Temperature 0.2 aw); “free base monohydrate” (Water Activity at Room Temperature 0.3 aw); “free base monohydrate” (Water Activity at Room Temperature 0.5 aw); “free base monohydrate” (Water Activity at Room Temperature 1.0 Aw).
